Where two headings read alike, the source gives them in different places.
Assays:
[1] = system: tubulin; parameters: method as in PMID 35196595; settings: read-out: IC50 tubulin polymerization inhibitor; cited from earlier work
[2] = system: HCT-116 cancer cell line; parameters: method as in PMID 35196595; settings: read-out: IC50 antiproliferative activity against HCT-116; cited from earlier work
[3] = system: cancer cell lines; settings: antiproliferative agent; read-out: IC50, range; cited from earlier work
[4] = system: panel of four cancer cell lines; settings: read-out: IC50 values, range; cited from earlier work
[5] = system: HeLa cells; settings: read-out: IC50 antiproliferative activity against HeLa cells; cited from earlier work
[6] = system: tubulin; settings: cited from earlier work
[7] = system: A549; assay: In vitro cell growth inhibition, resazurin viability assay; assay type: cell-based, human; settings: Homo sapiens, A549; 72 h, resazurin; mean ± SE
Description: (§1) All the cell lines used in this paper were of human origin and purchased from the American Type Culture Collection (ATCC, Manassas, VA, USA). Colon adenocarcinoma (HT-29), non-small cell lung carcinoma (A549), cervix carcinoma (HeLa) and breast adenocarcinoma (MDA-MB-231) cells were grown in RPMI (HT29) or DMEM (A549, HeLa, MDA-MB-231) medium (Gibco, Milano, Italy). Both media were supplemented with 115 units/mL of penicillin G (Gibco, Milano, Italy), 115 μg/mL of streptomycin (Invitrogen, Milano, Italy) and 10% fetal bovine serum (Invitrogen, Milano, Italy). All cell lines were grown at 37 °C in a humidified 5% CO2 atmosphere. The cells were grown in 2 mL of complete medium.
(§2) Stock solutions were prepared for each compound by dissolving in DMSO at the final concentration of 10 mM.
(§3) The cells were seeded in 96-well plates at the appropriate density for each cell line. The respective cell line densities used for the antiproliferative assay were HeLa and HT29 5000 cells/well, A549 4000 cells/well and MDA-MB-231 7000 cells/well. The total volume of medium was 100 µL. After 24 h, the cells were treated by performing serial 5-fold dilutions of the tested compounds starting from a concentration of 10 μM. All experimental conditions were tested in triplicate for statistical analysis. After 72 h of incubation, 10 μL of 100 μg/mL resazurin solution was added to each well and the plate was re-incubated for 3–4 h. The fluorescence of the wells in each plate was monitored using a Spark 10M spectrophotometer (Tecan Group Ltd., Mannedorf, Switzerland) with a 535 nm excitation wavelength and a 600 nm emission wavelength.

[8] = system: MDA-MB-231; assay: as above; assay type: cell-based, human; settings: Homo sapiens, MDA-MB-231; 72 h, resazurin; mean ± SE
Description: as §1, §2, §3

[9] = system: HT29; assay: as above; assay type: cell-based, human; settings: Homo sapiens, HT-29; 72 h, resazurin; mean ± SE
Description: as §1, §2, §3

[10] = system: HeLa; assay: as above; assay type: cell-based, human; settings: Homo sapiens; 72 h, resazurin; mean ± SE
Description: as §1, §2, §3

[11] = system: Bovine brain tubulin; assay: Inhibition of tubulin polymerization (turbidimetric assembly assay); assay type: biochemical; settings: tubulin at 10 μM, 20 min incubation; read-out: Tubulin Assembly IC50 ± SD
Description: (§4) Bovine brain tubulin was purified as described previously. To evaluate the effects of the compounds on tubulin assembly in vitro [80], varying concentrations were preincubated with 10 μM tubulin in 0.8 M monosodium glutamate (pH 6.6) at 30 °C and the reaction mixtures then cooled to 0 °C. After addition of GTP, the mixtures were transferred to 0 °C cuvettes in Beckman Coulter (Brea, CA, USA) DU-7400/DU-7500 recording spectrophotometers equipped with electronic temperature controllers and warmed to 30 °C, and the assembly of tubulin was observed turbidimetrically. […] Inhibition of colchicine binding to tubulin was measured as described before, except that the reaction mixtures contained 0.5 μM tubulin and 5 μM each of [^3H]colchicine and test compound. Only one DEAE-cellulose filter was used per sample, and filtration was by gravity.
(§5) Bovine brain tubulin (see ref. [79] for details of purification) was used to examine effects on tubulin polymerization and colchicine binding. Briefly, in the polymerization experiments, different compound concentrations were preincubated with 10 µM tubulin for 15 min at 30 °C and cooled on ice. After GTP was added to each reaction mixture, the samples were transferred to 0 °C cuvettes in recording spectrophotometers with electronic temperature controllers. The temperature was raised to 30 °C over about 30 s, and turbidity development was followed for 20 min at 350 nm. […] In the current studies, [^3H]colchicine (from American Radiolabeled Corp., St. Louis, MO) binding was measured after 10 min at 37 °C. Reaction mixtures contained 0.5 µM tubulin and 5.0 µM each of the [^3H]colchicine and the potential inhibitor, and a single DEAE-cellulose filter was used for each sample, with gravity filtration.

[12] = system: MDA-MB-231, HeLa, A549 and HT-29 cancer cell lines; assay: Antiproliferative activity stated across the panel of cancer cell lines; assay type: cell-based, human; settings: for IC50: Homo sapiens; for fold reduction in antiproliferative activity relative to 3d: range over cell lines
Description: as §1, §2, §3

[13] = system: Bovine brain tubulin; assay: Inhibition of [3H]colchicine binding to tubulin; settings: tubulin 0.5 µM, [3H]colchicine 5 µM, tested compound 5 µM
Description: as §4, §5

[14] = system: tubulin; parameters: method as in PMID 25025853; settings: read-out: IC50 inhibition of tubulin polymerization; cited from earlier work
[15] = on HeLa, A549 and HT-29 cancer cells, read-out: IC50 values, range

Which results are given for COc1cc(-c2cc(-c3ccc(Cl)cc3)nc3nc(N)nn23)cc(OC)c1OC [Compound 5]?
IC50 [1]: 3840 nM; IC50 [2]: 530 nM

With COc1cc(Nc2cc(C)nc3nc(Nc4ccc(C)cc4)nn23)cc(OC)c1OC [5-methyl-2-(p-toluidino)-7-(3′,4′,5′-trimethoxyanilino)-[1,2,4]triazolo[1,5-a]pyrimidine] as the compound, how does the IC50 [3] read?
The IC50 was 520 to 1550 nM.

Which results are given for COc1ccc(-c2nc3nccc(-c4cc(OC)c(OC)c(OC)c4)n3n2)cc1O [Compound 4]?
IC50 [4]: 3000 to 18000 nM; IC50 [5]: 60 nM; fold greater potency than CA-4, inhibition of tubulin assembly [6]: 3 fold

For CCc1ccc(Nc2nc3nccc(-c4cc(OC)c(OC)c(OC)c4)n3n2)cc1 [Compound 3h, N-(4-Ethylphenyl)-7-(3,4,5-trimethoxyphenyl)-[1,2,4]triazolo[1,5-a]pyrimidin-2-amine], which melting point is on record?
The melting point was 199 to 200 °C.

And the IC50 [7]?
The IC50 was 0.2 ± 0.044 µM.

And the IC50 [8]?
The IC50 was greater than 10 µM.

And the IC50 [9]?
The IC50 was 0.16 ± 0.033 µM.

And the IC50 [10]?
Its IC50 is 0.24 ± 0.074 µM.

What about the IC50 [11] of the same compound?
Its IC50 is 1900 ± 200 nM.

What about the IC50 [12, 15] of the same compound?
Its IC50 is 160 to 240 nM.

What about the “fold reduction in antiproliferative activity relative to 3d” value [12] of the same compound?
The value was 5–7 fold.

What about the “Colchicine Binding % Inhibition ± SD” value [13] of the same compound?
The value was 21 ± 0.9%.

For COc1ccc(/C=C\c2cc(OC)c(OC)c(OC)c2)cc1O [CA-4, combretastatin A-4, reference compound], which IC50 [8] is on record?
The IC50 was 0.005 ± 0.002 µM.

And the IC50 [10]?
The IC50 was 0.004 ± 0.001 µM.

What about the IC50 ([12]; against MDA-MB-231 and HeLa cancer cell lines, read-out: IC50, range) of the same compound?
Its IC50 is 4 to 5 nM.

What about the “Colchicine Binding % Inhibition ± SD” value [13] of the same compound?
The value was 98 ± 2%.

Which IC50 [14] does the source give for COc1cc(C(=O)n2nc(Nc3ccc(C)cc3)nc2N)cc(OC)c1OC [Compound 2a] here?
Its IC50 is 750 nM.

With COc1cc(-c2ccnc3nc(Nc4ccc(C)c(C)c4)nn23)cc(OC)c1OC [Compound 3f, N-(3,4-Dimethylphenyl)-7-(3,4,5-trimethoxyphenyl)-[1,2,4]triazolo[1,5-a]pyrimidin-2-amine] as the compound, how does the melting point read?
Its melting point is 189 to 190 °C.

What about the IC50 [7] of the same compound?
Its IC50 is 0.16 ± 0.045 µM.

What about the IC50 [8] of the same compound?
The IC50 was greater than 10 µM.

And the IC50 [9]?
The IC50 was 0.16 ± 0.041 µM.

What about the IC50 [10] of the same compound?
Its IC50 is 0.067 ± 0.0023 µM.

And the IC50 [11]?
Its IC50 is 800 ± 100 nM.

And the IC50 [12, 15]?
Its IC50 is 67 to 160 nM.

What about the “fold reduction in antiproliferative activity relative to 3d” value [12] of the same compound?
Its value is 2–5 fold.

And the “Colchicine Binding % Inhibition ± SD” value [13]?
The value was 18 ± 5%.

Reference: article PMC9415608, “Design, Synthesis and Biological Investigation of 2-Anilino Triazolopyrimidines as Tubulin Polymerization Inhibitors with Anticancer Activities” (Pharmaceuticals, 2022)
